Reference: ChEMBL document CHEMBL2331339
The source made the active and inactive calls. The rule behind the calls is not given here.

Key:
[1] = target: T1, Alpha-hemolysin (Staphylococcus aureus) (UniProt P09616); assay: Binding affinity to wild type Staphylococcus aureus alpha-hemolysin by fluorescence quenching method
T1 sequence (whole entry): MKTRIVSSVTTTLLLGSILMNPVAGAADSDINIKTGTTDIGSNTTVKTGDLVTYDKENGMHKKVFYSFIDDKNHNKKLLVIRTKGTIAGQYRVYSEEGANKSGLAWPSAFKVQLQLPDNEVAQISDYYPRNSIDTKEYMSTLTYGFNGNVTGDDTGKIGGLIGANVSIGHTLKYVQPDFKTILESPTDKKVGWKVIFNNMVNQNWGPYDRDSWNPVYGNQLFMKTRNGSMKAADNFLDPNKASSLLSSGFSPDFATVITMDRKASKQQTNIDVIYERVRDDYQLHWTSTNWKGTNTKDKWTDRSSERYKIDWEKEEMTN

Staphylococcus aureus [2] = assay: Antimicrobial activity against Staphylococcus aureus at 1024 ug/ml by broth microdilution method; type: functional, organism-based
[3] = target: T1, Alpha-hemolysin (Staphylococcus aureus); assay: Inhibition of deoxycholate-induced wild type Staphylococcus aureus alpha-hemolysin oligomerization at 16 ug/ml by SDS-PAGE analysis
Staphylococcus aureus [4] = assay: Inhibition of alpha-hemolysin protein expression in Staphylococcus aureus 8325-4 at 4 to 256 ug/ml by Western blot analysis; type: functional, organism-based

`Cc1c(O)c(C)c2c(c1O)C(=O)CC(c1ccc(O)c(O)c1)O2` (centres undefined) was tested, and the Activity [1] was “Active”, the Activity (Staphylococcus aureus [2]) was “inactive” and the inhibition [3] was “Active”. For the same compound, the inhibition (Staphylococcus aureus [4]) was “inactive”.
